Assay results from patent publication EP1087941B9, “THIOLESTERS AND USES THEREOF” (THE UNITED STATES OF AMERICA, as represented by THE …, priority 1998, dated 1999).
Where two headings read alike, the source gives them in different places.

Tests used:
[1] = target: T1, recombinant HIV-1 NCp7 protein (Human immunodeficiency virus type 1 group M subtype B, UniProt P03347); experiment: Trp37 zinc finger fluorescence (zinc ejection) assay; type: biochemical; conditions: for Zinc Finger Reactivity RFU/30 min: Table 2; for zinc finger reactivity: result in words
T1 construct: within the nucleocapsid p7 (NCp7) protein portion of the polyprotein
Protocol: Zinc finger reactivity was measured using a Zn specific fluorochrome, TSQ, N-(6-methoxy-8-quinolyl) -p-toluenesulfonamide, assay or a Trp37 zinc finger fluorescence assay. Fluorescent measurements of the Trp37 residue in the C-terminal finger of recombinant HIV-1 NCp7 protein were performed as described by Rice (1995) Science 270:1194-1197; Rice (1997) Antimicrob. Agents Chemother. 41:419-426. Measurement of Zn ejection from both fingers was measured using the Zn-selective fluorchrome probe TSQ (Molecular Probes, Eugene OR) as described by Rice (1996) J. Med. Chem 39:3606-3616. Measurement of the ability of NCp7 to bind to a DNA oligomer, a 44 mer: […] (SEQ ID NO:1), analogous to the HIV-1 RNA packaging site was carried out as described by Huang (1998) J. Med. Chem. 41:1371-1381, see also, Rossio (1998) HIV Pathogenesis and Treatment: Keystone Symposium on Molecular and Cellular Biology, Abstract # 4082. Briefly, 50 nM NCp7 was treated with test compounds for 1 hour at RT in […] buffer containing 10% glycerol and 50 mM Tris-HCl (pH 7.5). Labeled oligomer (0.1 picomole, end labeled [^32P]) was added in an equal volume of buffer containing 10% glycerol, 50 mM Tris-HCl (pH 7.5), 400 mM KCl and 40 mM MgCl2. The reaction was continued for 15 min at room temperature, and a total of […] (or 1/4 of the total reaction volume) was separated on nondenaturing 4.5% polyacrylamide gels in 0.5X Tris-Borate electrophoresis buffer. NCp7-oligomer complexes were visualized by autoradiography.
Changes in the intrinsic fluorescence of aromatic protein moieties are commonly used to monitor a reaction which involves a change in protein conformation. In the present invention, fluorescence can be used to monitor the loss of metal ion from a zinc finger, e.g., the loss of zinc from a CCHC retroviral zinc finger protein, after contact with a thiolester of the invention. The intrinsic fluorescence of Trp 37 in the second zinc finger of HIV-1 NC protein has been used to monitor nucleic acid binding and conformation of the zinc finger complex (see, Summers (1992) supra).
Zinc ejection is measured by the ability of compounds to chemically attack the cysteines in purified NCp7 protein resulting in a loss of fluorescence due to the movement of the tryptophan 37 residue from an exposed to an internal position on the protein. Zinc ejection is measured and expressed as either percent decrease in total fluorescence or decrease in relative fluorescence units per min during a 30 min assay (RFU/min). A thiolester is considered within the scope of the invention if any amount of zinc ejection is detected. For example, compound 50 has a zinc ejection rate of 0.86 RFU/min.

[2] = test system: HIV-1RF; experiment: XTT cytoprotection assay (antiviral activity); type: cell-based; conditions: for antiviral activity: result in words
Source text: (§1) One exemplary means to determine antiviral activity is with CEM-SS cells and virus (e.g., HIV-1RF) (MOI = 0.01) using the XTT (2,3-bis[2-methoxy- 4-nitro-5-sulfophenyl] -5- [(phenylamino)carbonyl]-2H-tetrazolium hydroxide) cytoprotection assay, as described by Rice (1993) PNAS 90:9721-9724, and Rice (1997) Antimicrob. Agents Chemother. 41:419-426. Briefly, cells are infected with HIV-1RF (or other virus to be tested) in the presence of various dilutions of test compounds (thiolesters and controls). The cultures are incubated for seven days. During this time control cultures without protective compounds (i.e., compounds with anti-viral activity) replicate virus, induce syncytia, and result in about 90% cell death. The cell death is measured by XTT dye reduction. XTT is a soluble tetrazolimn dye that measures mitochondrial energy output, similar to MTT. Positive controls using dextran sulfate (an attachment inhibitor) or 3'-Azido -2'-3'-dideoxythymidine, AZT (a reverse transcriptase inhibitor) are added to each assay. Individual assays are done in duplicate using a sister plate method.
(§2) Effective antiviral concentrations providing 50% cytoprotection (EC50), and cellular growth inhibitory concentrations causing 50% cytotoxicity (IC50) are calculated.

[3] = test system: CEM-SS cells; experiment: cells; type: cell-based; conditions: for IC50: Homo sapiens, CEM-SS; for toxicity at the high test dose: high test dose of 316 µM
Source text: as §1, §2

[4] = average decrease in relative fluorescence
[5] = Human immunodeficiency virus 1, read-out: Antiviral Activity EC50
[6] = read-out: Antiviral Activity IC50
[7] = read-out: IC50 / cellular toxicity
[8] = Table 3, average decrease in relative fluorescence
[9] = Human immunodeficiency virus 1, B104
[10] = Human immunodeficiency virus 1, read-out: EC50 (concentration inhibiting 50% virus replication)
[11] = Table 4, average decrease in relative fluorescence units over 30 min
[12] = Table 5, average decrease in relative fluorescence units over 30 min
[13] = read-out: Antiviral Activity IC50%

Compound	EC50 [2, 5] [µM]	IC50 [3, 6] [µM]	Zinc Finger Reactivity RFU/ min [1, 8] [RFU/ min]	further results
NS(=O)(=O)c1ccc(Cn2sc3ccccc3c2=O)cc1 [23 BITA]	13.8	53.7		Zinc Finger Reactivity RFU/30 min [1, 4]: 2.7 RFU/30 min; IC50 [3, 7]: 53.7 µM
NS(=O)(=O)c1ccc(CCn2sc3ccccc3c2=O)cc1 [24 BITA]	2	45.5		Zinc Finger Reactivity RFU/30 min [1, 4]: 2.7 RFU/30 min
CC(=O)Nc1ccc(S(=O)(=O)Nc2ccc(S(=O)(=O)c3ccc(-n4sc5ccccc5c4=O)cc3)cc2)cc1 [28 BITA]	9.6	188	7.9	
O=c1c2ccccc2sn1-c1ccc(S(=O)(=O)c2ccc([N+](=O)[O-])cc2)cc1 [31 BITA]	> 316	> 316	4.1	antiviral activity [2]: without antiviral activity
O=c1c2ccccc2sn1-c1ccc(S(=O)(=O)c2ccc(NS(=O)(=O)Cc3ccccc3[N+](=O)[O-])cc2)cc1 [34 BITA]	3.2	59.5	2	antiviral activity [2]: significant antiviral activity
NS(=O)(=O)c1ccc(CNC(=O)c2ccccc2SSc2ccccc2C(=O)NCc2ccc(S(N)(=O)=O)cc2)cc1 [Compound 23D, N,N'-(2,2'-dithiodibenzoyl)-bis-4-(aminomethyl)benzene-sulfonamide]	0.33	19.4		zinc finger reactivity / zinc ejection rate [1]: 3.3 RFU/min; Zinc Finger Reactivity RFU/30 min [1, 4]: 3.3 RFU/30 min; IC50 [3, 7]: 19.4 µM
NS(=O)(=O)c1ccc(CCNC(=O)c2ccccc2SSc2ccccc2C(=O)NCCc2ccc(S(N)(=O)=O)cc2)cc1 [Compound 24D, N,N-(2,2'-dithiodibenzoyl)-bis-4-(2-aminoethyl)benzene-sulfonamide]	0.41	52.8		Zinc Finger Reactivity RFU/30 min [1, 4]: 2.7 RFU/30 min
NS(=O)(=O)c1ccc(NC(=O)CNC(=O)c2ccccc2SSc2ccccc2C(=O)NCC(=O)Nc2ccc(S(N)(=O)=O)cc2)cc1 [Compound 25D, N,N'-(2,2'-dithiodibenzoyl)-bis-4-(glycinamido)benzene-sulfonamide]	1.6	17.6		zinc finger reactivity / zinc ejection rate [1]: 7.9 RFU/min; Zinc Finger Reactivity RFU/30 min [1, 4]: 7.9 RFU/30 min
Nc1ccc(S(=O)(=O)c2ccc(NC(=O)c3ccccc3SSc3ccccc3C(=O)Nc3ccc(S(=O)(=O)c4ccc(N)cc4)cc3)cc2)cc1 [Compound 26D]	4.3	< 316	3.3	zinc finger reactivity / zinc ejection rate [1]: 3.3 RFU/min; EC50 [2, 9]: 4.3 µM; EC50 [2, 10]: 4.3 µM; toxicity at the high test dose [3]: no toxicity
CC(=O)Nc1ccc(S(=O)(=O)c2ccc(NC(=O)c3ccccc3SSc3ccccc3C(=O)Nc3ccc(S(=O)(=O)c4ccc(NC(C)=O)cc4)cc3)cc2)cc1 [Compound 27D]	1.5	160	5.9	zinc finger reactivity / zinc ejection rate [1]: 5.9 RFU/min; EC50 [2, 9]: 1.5 µM; EC50 [2, 10]: 1.5 µM; IC50 [3, 7]: 160 µM
CC(=O)Nc1ccc(S(=O)(=O)Nc2ccc(S(=O)(=O)c3ccc(NC(=O)c4ccccc4SSc4ccccc4C(=O)Nc4ccc(S(=O)(=O)c5ccc(NS(=O)(=O)c6ccc(NC(C)=O)cc6)cc5)cc4)cc3)cc2)cc1 [Compound 28D]	1	12.7	5.9	
COc1ccc(C(=O)Nc2ccc(S(=O)(=O)c3ccc(NC(=O)c4ccccc4SSc4ccccc4C(=O)Nc4ccc(S(=O)(=O)c5ccc(NC(=O)c6ccc(OC)cc6)cc5)cc4)cc3)cc2)cc1 [Compound 29D]	3.8	79.6	6.9	
O=C(Nc1ccc(S(=O)(=O)c2ccc(NC(=O)c3ccccc3SSc3ccccc3C(=O)Nc3ccc(S(=O)(=O)c4ccc(NC(=O)c5cccs5)cc4)cc3)cc2)cc1)c1cccs1 [Compound 30D]	12.2	190		
O=C(Nc1ccc(S(=O)(=O)c2ccc([N+](=O)[O-])cc2)cc1)c1ccccc1SSc1ccccc1C(=O)Nc1ccc(S(=O)(=O)c2ccc([N+](=O)[O-])cc2)cc1 [Compound 31D]	12.2	> 316	2.9	EC50 [2, 10]: 12.2 µM; toxicity at the high test dose [3]: no toxicity
O=C(Nc1ccc(S(=O)(=O)c2ccc(NC(=O)c3ccccc3SSc3ccccc3C(=O)Nc3ccc(S(=O)(=O)c4ccc(NC(=O)c5ccc([N+](=O)[O-])cc5)cc4)cc3)cc2)cc1)c1ccc([N+](=O)[O-])cc1 [Compound 32D]	78	> 316	2.9	
O=C(Nc1ccc(S(=O)(=O)c2ccc(NC(=O)c3ccccc3SSc3ccccc3C(=O)Nc3ccc(S(=O)(=O)c4ccc(NC(=O)c5cc([N+](=O)[O-])cc([N+](=O)[O-])c5)cc4)cc3)cc2)cc1)c1cc([N+](=O)[O-])cc([N+](=O)[O-])c1 [Compound 33D]	240	> 316	1.6	
O=C(Nc1ccc(S(=O)(=O)c2ccc(NS(=O)(=O)Cc3ccccc3[N+](=O)[O-])cc2)cc1)c1ccccc1SSc1ccccc1C(=O)Nc1ccc(S(=O)(=O)c2ccc(NS(=O)(=O)Cc3ccccc3[N+](=O)[O-])cc2)cc1 [Compound 34D]		> 316	1.5	EC50 [2, 10]: 12.3 µM; antiviral activity [2]: significant antiviral activity; toxicity at the high test dose [3]: no toxicity
Nc1cccc(S(=O)(=O)c2cccc(NC(=O)c3ccccc3SSc3ccccc3C(=O)Nc3cccc(S(=O)(=O)c4cccc(N)c4)c3)c2)c1 [Compound 35]	1	81.5		zinc finger reactivity / zinc ejection rate [1]: 0.92 RFU/min; Zinc Finger Reactivity RFU/ min [1, 11]: 0.92 RFU/min; EC50 [2, 9]: 1 µM
CC(=O)Nc1cccc(S(=O)(=O)c2cccc(NC(=O)c3ccccc3SSc3ccccc3C(=O)Nc3cccc(S(=O)(=O)c4cccc(NC(C)=O)c4)c3)c2)c1 [Compound 36]	0.62	5.9		zinc finger reactivity / zinc ejection rate [1]: 2 RFU/min; Zinc Finger Reactivity RFU/ min [1, 11]: 2 RFU/min; EC50 [2, 9]: 0.62 µM
CC(=O)NS(=O)(=O)c1ccc(NC(=O)c2ccccc2NC(=O)CCCl)cc1 [Compound 37, N-[2-(3-chloro-propionamido)benzoyl]sulfacetamide]				Zinc Finger Reactivity RFU/ min [1, 12]: RFU/ min^b 2.0; zinc finger reactivity [1]: modest zinc finger reactivity; antiviral activity [2]: neither had appreciable antiviral activity; IC50 [3, 13]: > 316 µM
CC(=O)NS(=O)(=O)c1ccc(NC(=O)c2cccc(NC(=O)CCCl)c2)cc1 [Compound 38]	38			Zinc Finger Reactivity RFU/ min [1, 12]: 3.9 RFU/ min; zinc finger reactivity [1]: modest zinc finger reactivity; antiviral activity [2]: neither had appreciable antiviral activity; IC50 [3, 13]: 103 µM
CC(=O)NS(=O)(=O)c1ccc(NC(=O)c2ccccc2NC(=O)CCl)cc1 [Compound 39]	> 316			Zinc Finger Reactivity RFU/ min [1, 12]: 0.3 RFU/ min; antiviral activity [2]: completely inactive; IC50 [3, 13]: 202 µM
